# Test results: patent US20250073208A1, “IL-6 AND/OR IL-1BETA INHIBITOR” (AGC INC., priority 2022, published 2025)
# Key:
# [1] = system: IL-1β mRNA; test: Quantitative RT-PCR analysis of IL-1β mRNA in whole lung of monocrotaline-induced pulmonary hypertension rats; format: in vivo, rat (male Sprague Dawley); settings: 2 mg/kg/day, 3 weeks, FIG. 7 right, result in words
# [2] = system: rats with monocrotaline-induced pulmonary hypertension; test: Pulmonary histopathological analysis in the monocrotaline-induced pulmonary hypertension rat model; format: in vivo, rat (male Sprague Dawley); settings: 2 mg/kg/day, 3 weeks
# Protocol: According to the method described in Abe K, Circ Res, 94: 385-393, 2004, a monocrotaline (MCT)-induced pulmonary hypertension rat model was prepared. Monocrotaline (manufactured by Sigma Ltd. Aldrich) was subcutaneously injected once at a dose of 60 mg/kg to 5- to 6-week-old (body weight 150-200 g) male Sprague Dawley rats (SD rat). The compound of the present invention (KAG-308) was orally administered using a gavage needle at a dose of 1 mg/kg (2 mg/kg/day) twice daily from the day of subcutaneous injection of monocrotaline until the day before measurement (“MCT+KAG-308” in FIG. 1). The same amount of solvent (water for injection) was administered for the same period to the pulmonary hypertension rat model not treated with KAG-308 (“MCT” in FIG. 1). The normal control group, which was not administered monocrotaline and KAG-308, was of the same age (“Normal” in FIG. 1). Three weeks after monocrotaline injection, right ventricular systolic pressure, systemic arterial pressure, heart rate number, and right-to-left ventricular weight ratio (right ventricular hypertrophy) were measured. Under isoflurane inhalation anesthesia, right ventricular systolic pressure was measured by the right heart catheterization method. Using a conductance catheter, systemic arterial pressure and heart rate were measured from the carotid artery. After the measurement, the rats were euthanized with a lethal dose of intravenous pentobarbital, and the hearts were excised. The weight of the left ventricle (LV) including the ventricular septum (Sep) relative to the right ventricle (RV) was measured, and the ratio was used as an index of right ventricular hypertrophy. […]
# Pulmonary arteries with an outer diameter of 50 to 100 μm were analyzed, and the mean medial wall thickness was measured in a blind manner (mean medial wall thickness=(outer diameter−inner diameter)/outer diameter).
# Muscularization of small pulmonary arteries with an outer diameter of 50 μm or less was analyzed by immunostaining with anti-α-SMA (smooth muscular actin) antibody. According to the percentage of smooth muscle in the total circumference of the small pulmonary artery, they were defined as Non muscular (<25%), Partially muscular (25-75%), and Totally muscular (>75%), and at least 70 small pulmonary arteries of each specimen were evaluated in a blinded method.
# Macrophages were measured by immunostaining using anti-CD68 antibody. The device used was a laser scanning microscope FV1200 IX83 (OLYMPUS), and observation was performed at a magnification of 400×, and CD68-positive cells were counted in 15 randomly selected fields mainly of small blood vessels.
# [3] = system: IL-6 mRNA; test: Quantitative RT-PCR analysis of IL-6 mRNA in whole lung of monocrotaline-induced pulmonary hypertension rats; format: in vivo, rat (male Sprague Dawley); settings: 2 mg/kg/day, 3 weeks, FIG. 7 left
# [4] = system: rats with monocrotaline-induced pulmonary hypertension; test: Monocrotaline (MCT)-induced pulmonary hypertension rat model: haemodynamics and right ventricular hypertrophy; format: in vivo; settings: 3 weeks
# Protocol: According to the method described in Abe K, Circ Res, 94: 385-393, 2004, a monocrotaline (MCT)-induced pulmonary hypertension rat model was prepared. Monocrotaline (manufactured by Sigma Ltd. Aldrich) was subcutaneously injected once at a dose of 60 mg/kg to 5- to 6-week-old (body weight 150-200 g) male Sprague Dawley rats (SD rat). The compound of the present invention (KAG-308) was orally administered using a gavage needle at a dose of 1 mg/kg (2 mg/kg/day) twice daily from the day of subcutaneous injection of monocrotaline until the day before measurement (“MCT+KAG-308” in FIG. 1). The same amount of solvent (water for injection) was administered for the same period to the pulmonary hypertension rat model not treated with KAG-308 (“MCT” in FIG. 1). The normal control group, which was not administered monocrotaline and KAG-308, was of the same age (“Normal” in FIG. 1). Three weeks after monocrotaline injection, right ventricular systolic pressure, systemic arterial pressure, heart rate number, and right-to-left ventricular weight ratio (right ventricular hypertrophy) were measured. Under isoflurane inhalation anesthesia, right ventricular systolic pressure was measured by the right heart catheterization method. Using a conductance catheter, systemic arterial pressure and heart rate were measured from the carotid artery. After the measurement, the rats were euthanized with a lethal dose of intravenous pentobarbital, and the hearts were excised. The weight of the left ventricle (LV) including the ventricular septum (Sep) relative to the right ventricle (RV) was measured, and the ratio was used as an index of right ventricular hypertrophy.
smiles,measurement,setting,value
"Cc1cccc([C@@H](C)[C@H](O)/C=C/[C@@H]2[C@@H]3[C@H](C[C@H]2O)O/C(=C\CCCc2nnn[nH]2)C3(F)F)c1 [KAG-308, 4-[(Z)-(1S,5R,6R,7R)-6-[(1E,3R,4R)-3-hydroxy-4-(m-tolyl)-1-pentenyl]-7-hydroxy-2-oxa-4,4-difluoro-bicyclo[3.3.0]octan-3-ylidene]-1-(tetrazol-5-yl)butane]",increase in mRNA expression level of IL-1β,[1],significantly suppressed
same,increase in infiltration of inflammatory CD68-positive macrophages,"[2]; lung, anti-CD68 immunostaining, 15 fields at 400×, FIG. 6",significantly suppressed
same,increase in average medial wall thickness of pulmonary artery,"[2]; pulmonary arteries of outer diameter 50 to 100 μm, EVG staining, FIG. 4",significantly suppressed
same,non-muscular percentage of small pulmonary arteries,"[2]; small pulmonary arteries of outer diameter 50 μm or less, anti-α-SMA immunostaining, non muscular <25%, FIG. 5",increased
same,totally muscular percentage of small pulmonary arteries,"[2]; small pulmonary arteries of outer diameter 50 μm or less, anti-α-SMA immunostaining, totally muscular >75%, FIG. 5",decreased
same,suppression of the increase in mRNA expression level of IL-6,[3],89%
same,increase in mRNA expression level of IL-6,[3]; result in words,significantly suppressed
same,increase in right ventricular systolic pressure (RVSP),"[4]; 1 mg/kg orally twice daily (2 mg/kg/day), FIG. 2 left",significantly suppressed
same,increase in weight ratio RV/LV+Sep (right ventricular hypertrophy),"[4]; 1 mg/kg orally twice daily (2 mg/kg/day), FIG. 2 right",significantly suppressed
same,left ventricular systolic pressure,"[4]; 2 mg/kg/day orally, FIG. 3 left",without affecting
same,heart rate,"[4]; 2 mg/kg/day orally, FIG. 3 right",without affecting
